Laboratory results published in ChEMBL document CHEMBL4627288, “Recent advances in TRPV4 agonists and antagonists” (Bioorg Med Chem Lett, 2020).

Columns and labels:
[1] = molecular target: Transient receptor potential cation channel subfamily V member 4 (Mus musculus, UniProt Q9EPK8); experiment: Agonist activity at mouse TRPV4
[2] = molecular target: T1, Transient receptor potential cation channel subfamily V member 4 (Homo sapiens, UniProt Q9HBA0); experiment: Antagonist activity at TRPV4 (unknown origin)
[3] = molecular target: T1, Transient receptor potential cation channel subfamily V member 4; experiment: Antagonist activity at human TRPV4

T1 sequence (Q9HBA0 whole entry): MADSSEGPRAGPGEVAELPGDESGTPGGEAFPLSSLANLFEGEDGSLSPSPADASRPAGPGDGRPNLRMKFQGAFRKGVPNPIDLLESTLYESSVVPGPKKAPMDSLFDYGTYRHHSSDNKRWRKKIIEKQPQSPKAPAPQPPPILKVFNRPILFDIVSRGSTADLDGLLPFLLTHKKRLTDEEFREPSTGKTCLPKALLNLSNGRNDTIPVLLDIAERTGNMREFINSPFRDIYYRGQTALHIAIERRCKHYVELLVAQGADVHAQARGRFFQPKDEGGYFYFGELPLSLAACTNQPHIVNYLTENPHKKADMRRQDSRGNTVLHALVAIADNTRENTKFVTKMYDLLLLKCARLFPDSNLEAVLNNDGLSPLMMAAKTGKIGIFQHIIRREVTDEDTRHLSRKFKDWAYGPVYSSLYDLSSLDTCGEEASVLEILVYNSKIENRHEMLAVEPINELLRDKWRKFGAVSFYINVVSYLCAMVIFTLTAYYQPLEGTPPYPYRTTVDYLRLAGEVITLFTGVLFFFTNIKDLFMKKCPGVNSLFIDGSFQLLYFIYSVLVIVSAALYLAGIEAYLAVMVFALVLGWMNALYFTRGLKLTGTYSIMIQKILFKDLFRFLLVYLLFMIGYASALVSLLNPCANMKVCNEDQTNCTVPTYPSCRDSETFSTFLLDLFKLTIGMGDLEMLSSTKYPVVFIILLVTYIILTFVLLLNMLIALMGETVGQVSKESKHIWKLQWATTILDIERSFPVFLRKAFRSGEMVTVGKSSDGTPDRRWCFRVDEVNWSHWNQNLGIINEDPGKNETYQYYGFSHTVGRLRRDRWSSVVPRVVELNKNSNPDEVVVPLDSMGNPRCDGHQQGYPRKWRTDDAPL
Chain of Transient receptor potential cation channel subfamily V member 4 (Mus musculus, UniProt Q9EPK8) (Q9EPK8 whole entry): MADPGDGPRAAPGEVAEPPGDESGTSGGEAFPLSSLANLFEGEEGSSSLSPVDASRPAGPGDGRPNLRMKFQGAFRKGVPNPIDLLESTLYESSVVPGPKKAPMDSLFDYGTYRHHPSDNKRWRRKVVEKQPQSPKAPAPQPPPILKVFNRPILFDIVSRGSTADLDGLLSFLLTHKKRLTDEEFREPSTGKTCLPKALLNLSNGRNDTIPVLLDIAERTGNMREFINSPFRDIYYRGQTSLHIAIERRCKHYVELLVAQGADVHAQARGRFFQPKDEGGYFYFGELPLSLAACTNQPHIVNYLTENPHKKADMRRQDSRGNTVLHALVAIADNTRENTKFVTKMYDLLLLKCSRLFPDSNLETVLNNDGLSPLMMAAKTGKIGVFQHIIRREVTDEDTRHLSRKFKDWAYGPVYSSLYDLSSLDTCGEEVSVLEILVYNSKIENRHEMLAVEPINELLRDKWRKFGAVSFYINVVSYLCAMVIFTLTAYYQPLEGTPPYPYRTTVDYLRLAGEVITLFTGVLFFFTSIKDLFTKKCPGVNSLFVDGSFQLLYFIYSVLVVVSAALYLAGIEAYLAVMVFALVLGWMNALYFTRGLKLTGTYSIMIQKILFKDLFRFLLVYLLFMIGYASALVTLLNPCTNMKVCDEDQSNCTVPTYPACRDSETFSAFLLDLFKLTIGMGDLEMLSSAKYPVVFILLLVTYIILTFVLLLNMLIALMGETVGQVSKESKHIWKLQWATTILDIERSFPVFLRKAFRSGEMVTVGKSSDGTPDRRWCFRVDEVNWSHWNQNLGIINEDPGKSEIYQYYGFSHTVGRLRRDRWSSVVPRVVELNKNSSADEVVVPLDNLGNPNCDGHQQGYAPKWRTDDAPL

Structure (SMILES) | EC50 [1] [nM] | IC50 [3] [nM] | also measured
CCCCC/C=C\C/C=C\C/C=C\CC1OC1CCCC(=O)O (stereo unspecified) | 150 | – | –
N#Cc1ccc(OCC2(O)CN(S(=O)(=O)c3ccc(Cl)cc3Cl)C2)cc1F | – | – | IC50 [2]: 4 nM
O=[N+]([O-])c1cc(Cl)ccc1S(=O)(=O)N1CCN(Cc2ccccc2)CC1 | 770 | – | –
C/C=C(\C)[C@H]1C(C)=C[C@H]2C[C@@H](C)C[C@@H](C(=O)O)[C@@H]2[C@@]1(C)C(=O)c1cccnc1 | – | 81800 | –
C/C=C/C=C/c1c(CC=C(C)C)cc(CC=C(C)C)c(O)c1CO | – | 70000 | –
C/C=C/C=C/c1c(CC=C(C)C)cc2c(c1[C@H](Nc1ccccc1C(=O)O)[C@H]1c3c(CC=C(C)C)cc4c(c3[C@@H]3OC(=O)c5ccccc5N3[C@H]1/C=C/C)OC(C)(C)[C@H](O)C4=O)OC(C)(C)[C@@H](O)C2=O (racemic) | – | 50.8 | –
